Data taken from patent publication US20110274808A1, “METHODS FOR INCREASING THE PALATABILITY OF COMPANION ANIMAL FOOD COMPOSITIONS” (Hill's Pet Nutrition, Inc., priority 2008, published 2011).

Legend:
GSH:GSSG ratio = test: Change in GSH:GSSG ratio in blood lymphocytes of dogs fed dl-alpha-lipoic acid in extruded food; format: in vivo, dog
Text: (§1) Thirty (30) adult, random source, dogs were utilized for this study. Dogs were at least 10 months of age, not pregnant, not lactating and of reasonable body weight prior to start of test. Animals were randomized into 5 groups for dietary treatment with 3 males and 3 females per each group.
All dogs were fed a control food (0 ppm dl-alpha-lipoic acid added) that met or exceeded all recommendations for nutrients as proposed by the American Association of Feed Control Officials (AAFCO 2000) during a 2 week prefeeding period (Table 2). Following the prefeeding period dogs were randomized into 5 treatment groups with one of the following dl-alpha lipoic acid target-inclusions (dry matter basis): 0 ppm, 150 ppm, 1500 ppm, 3000 ppm, 4500 ppm. In all diets, control and alpha lipoic acid, Vitamin E was added and was present at a level of 600-1000 International Units and Vitamin C was added at levels of 100-200 ppm.
Blood was collected aseptically for complete blood count, and blood biochemistry analysis 2 weeks prior to start and again at 0, 28, 56, 84, 112, 140 and 168 days of the study. In addition, 15 ml of whole blood was collected for isolation of lymphocytes at day 0, 28 and 84 of the dietary intervention.
Heparinzed whole blood was layered onto a 50 ml Accuspin conical centrifuge tube (Sigma Chemical) and an equal volume of Phosphate buffered saline (PBS) was added. Samples were centrifuged at 700 g for 30 minutes without brake. The monocyte layer was harvested, transferred to a 15 ml conical centrifuge tube, resuspended in 1-3 ml of PB, and centrifuged as before (First wash). A second wash was performed as the first wash. Finally, cells were harvested and suspended in perchloric acid (10% w/v) and frozen at −70° C. until analysis.
Samples were transferred from −70° C. freezer into a cooler with dry ice in it. Vials were centrifuged at 12,000 rpm for 5 minutes in a refrigerated centrifuge. An aliquot of supernatant for glutathione (GSH) analysis was transferred to a conical test tube.
Derivatization of the acid soluble extracts was by the method of Reed and coworkers (Fariss et al) as modified by Jones (Jones et al)
Briefly, 150 μL extract or external standards were added into a 1.5 ml Eppendorf tube followed by addition of 20 μγ-Glu-Glu internal standard and 50 μL IAA added followed by mixing. The solution was adjusted to pH about 10 (purple color) by using KOH—KHCO3 working solution. Solutions were incubated 1 hr. under room temperature in the dark. Sanger's reagent was added at the same volume as of the total volume and the solution was incubated overnight (20 hrs) in the dark at room temperature.
After incubation, the solution was centrifuged at 12000 rpm for 5 minutes with the supernatant transferred into another 1.5 ml eppendorf tube.
Solvents and separation conditions were as described (Fariss, Jones). Levels of GSH and GSSG were quantified relative to authentic standards. Gamma-glutamyl-glutamate was used as an internal standard to assess derivatization efficiency.
Comparison of values for clinical chemistry, hematology and body weights vs baseline were analyzed by way of paired t-test on SAS for windows with significance set at P<0.05. Means of values at each measured time point were separated by a one-way ANOVA with significance set at P<0.05. The difference in GSH:GSSG between day 84 and baseline were analyzed between groups by way of SAS for windows in a one-way ANOVA with significance set at P<0.05.

[1] = Six-month feeding safety study in dogs (body weight, physical examination, serum biochemistry, hematology); format: in vivo
Text: as §1
All dogs were fed a control food (0 ppm dl-alpha-lipoic acid added) that met or exceeded all recommendations for nutrients as proposed by the American Association of Feed Control Officials (AAFCO 2000) during a 2 week prefeeding period (Table 2). […]
Test foods were the sole source of nutrients except for water. […] After dogs were selected and initial body weights taken, a food dose was calculated for each dog based on the expected ME of the food. Initial food dose calculations were based on the maintenance energy requirement (MER) for the dog modified by a factor to account for normal activity as calculated by the following formula: […]
Dogs were weighed weekly and had food doses adjusted as needed in order to feed enough food to maintain their optimal body weight. Optimal body weight was determined to be 3 on a 5 point scale. […] All measures of body weight and food intake were recorded. […]
Comparison of values for clinical chemistry, hematology and body weights vs baseline were analyzed by way of paired t-test on SAS for windows with significance set at P<0.05. […]

[2] = Change in body composition of dogs over 90 days; format: in vivo, dog; conditions: 90 day treatment period
Text: Table 4 illustrates the change in body composition of dogs fed a control diet compared with dogs fed a control plus fish oil and a control plus lipoic acid.

Question: What does the source list for `O=C(O)CCCCC1CCSS1` (racemic) [DL-Alpha Lipoic Acid, dl-alpha-lipoic acid]?
Answer: Difference in GSH:GSSG ratio - day 0 to day 84 (GSH:GSSG ratio; dogs, 150 ppm inclusion in extruded food): 70 +/− 20; Difference in GSH:GSSG ratio - day 0 to day 84 (GSH:GSSG ratio; dogs, 1,500 ppm inclusion in extruded food): 24 +/− 7; Difference in GSH:GSSG ratio - day 0 to day 84 (GSH:GSSG ratio; dogs, 3,000 ppm inclusion in extruded food): 10 +/− 4; Difference in GSH:GSSG ratio - day 0 to day 84 (GSH:GSSG ratio; dogs, 4,500 ppm inclusion in extruded food): 50 +/− 36; Effect on reduced glutathione (GSH) to oxidized glutathione (GSSG) ratio (GSH:GSSG ratio; dogs, chronic feeding in diet): improves; Safety of chronic feeding in diet ([1]; dog, in vivo): safe and effective; Body weight ([1]; dogs, 4500 ppm inclusion group, 6 months): some weight loss occurred initially; Change in weight compared with control and fish oil diets [2]: greatest change in weight
